System: Streptomyces venezuelae ATCC 10712
Experiment: Confrontation assay B. velezensis GA1 / S. venezuelae on REM plate, UPLC-MS metabolite profiling of the agar
Conditions: gelified REM, 3 days at 26°C
Experimental: Confrontation assays were performed on square Petri dishes (12 × 12 cm) with 40 mL of REM solid medium at 26°C (REM supplemented with 14 g/L of agar).
S. venezuelae ATCC 10712 was inoculated as stripes (1 × 12 cm) in the middle of the plate with 40 µL of spore suspension (10^7 spores/mL) and spread with a cotton swab. Next, B. velezensis GA1 cells were collected from fresh precultures as described and adjusted to OD600 nm 0.1. Then, 5 µL of B. velezensis GA1 suspension was spotted at 1 cm of the Streptomyces line. Control plates were done following the same procedure without the inoculation of either Bacillus or Streptomyces. Plates were then incubated for 3 days at 26°C in the dark. Pictures of the plates were then captured using a CoolPix camera (NIKKOR ×60 wide optical zoom extra-low dispersion vibration reduction 4.3–258.0 mm 1:33 to 6.5).
The extraction of the metabolites from the agar was performed as follows. For the confrontation experiment, we precisely sampled the area of agar (2 × 1 cm) near the colony of Bacillus or Streptomyces (the confrontation zone is 1 cm wide) with standardized plugs. For the in planta, we sampled the agar area (1 × 1 cm) near the tomato roots. In both cases, the agar samples were transferred to Eppendorf tubes and placed for 24 h at −20°C. Then, the agar was thawed at room temperature and centrifuged for 10 min at 13,000 rpm. The supernatants were then collected and filtered (0.22-µm pore size filters) before UPLC-MS analysis.
All UPLC-MS analyses were performed using an Agilent 1290 Infinity II coupled with a diode array detector and a mass detector (Jet Stream ESI-Q-TOF 6530) in positive mode with the parameters set up as follows: capillary voltage of 3.5 kV, nebulizer pressure of 35 lb/in^2, drying gas of 8 L/min, drying gas temperature of 300°C, flow rate of sheath gas of 11 L/min, sheath gas temperature of 350°C, fragmentor voltage of 175 V, skimmer voltage of 65 V, and octopole radiofrequency of 750 V. Accurate mass spectra were recorded in the m/z range of 300–1,700. For untargeted MS/MS, we used the same MS1 parameters as described. We added MS2 untargeted acquisition mode with the parameters as follows: MS/MS range 50–1,700 m/z; MS/MS scan rate 3 spectra/s; isolation width MS/MS medium (approx. 4 AMU), Decision Engine Native; fixed collision energies of 25 and 40 V for surfactin, 50 V for iturin, and 60 V for fengycin experiments; precursor selection: three for the surfactin experiment, four for the iturin and fengycin experiments, threshold 1,500 (Abs), isotope model common, active exclusion after two spectra and release after 0.5 min, sorting the precursors by charge state then abundance (charge state preference 1). For targeted MS/MS, we used the same MS1 parameters MS/MS range of 50–1,700 m/z or 50–3,200 (when required for Pseudomonas CLPs with mass >1,700 Da), MS/MS scan rate 3 spectra/s, isolation width MS/MS narrow (approx. 1.3 amu), and fixed collision energies 20, 40, and 60V. In all experiments, a C18 Acquity UPLC ethylene bridged hybrid column (2.1 mm × 50 mm × 1.7 µm; Waters Corporation, Milford, MA, USA) was used at a flow rate of 0.6 mL/min and a temperature of 40°C. The injection volume was 20 µL, and the diode array detector scanned a wavelength spectrum between 190 and 600 nm. Unless otherwise mentioned, a gradient of acidified water (0.1% formic acid) (solvent A) and of acidified acetonitrile (0.1% formic acid) (solvent B) was used as mobile phase with a constant flow rate of 0.6 mL/min, starting at 10% B and rising to 100% B in 20 min. Solvent B was kept at 100% for 4 min before going back to the initial ratio. MassHunter Workstation (version 10.0) and ChemStation software were used for data collection and analysis. For untargeted analysis of iturin and fengycin degradation products, we used the same solvent and flow rate, starting at 10% B to 20% in 2 min, then rising to 50% B at 14 min and 100% B at 25 min, followed by 100% B and 5 at 10% B at 6 min.

Question: For iturin, which “shorter CLP fragment detected in the confrontation zone but not in Bv monoculture” value (UPLC-MS, MS/MS) is on record?
Answer: The value was “loss of asparagine in position 3”.

Question: And the “abundance of the CLP in the confrontation zone compared with monocultures” value (agar extract of confrontation zone, UPLC-Q-TOF-MS peak areas, three biological replicates)?
Answer: The value was “decrease in the abundance”.
